Results: US11964941B2, “5-Bromo-indirubins” (City of Hope, priority 2014, dated 2024)
Read-outs that look alike come from different tables or passages of the source.

Columns and labels:
MOLM13 AML cells = assay: MTS cell viability, MOLM13 AML cells (FLT3-ITD); type: cell-based, human; conditions: read-out: IC50 for 50% inhibition of viability
Protocol: (§1) MTS assays were performed for cell viability. Human cancer cells were seeded in 96-well plates (2500 cells/well for solid tumors, 5000 cells/well for blood tumors), incubated overnight at 37 C in 5% CO2, and exposed to 5IN-1NH1 or 5IN-1NH1s in a dose-dependent manner for 48 h. See FIGS. 1A-1B, 2A-2B, 3, 4A-4B, and 6A-6B. Dimethyl sulfoxide (DMSO) was used as the vehicle control. Viable cell numbers were determined by tetrazolium conversion to its formazan dye and absorbance was measured at 490 nm using an automated ELISA plate reader. Each experiment was performed in quadruplicate. IC50 values were determined using CalcuSyn software (BIOSOFT®, Cambridge GB).
(§2) Compound (1289) inhibits viabilities of MV4-11 and MOLM13 AML cells that harbor an internal tandem duplication (ITD) mutation. MTS assays were performed for cell viability. Human MV4-11 and MOLM13 AML cells (5000/well) were seeded in 96-well plates, incubated overnight at 37° C. in 5% CO2, and exposed to compound (1289) in a dose-dependent manner for 48 h. Dimethyl sulfoxide (DMSO) was used as the vehicle control. Viable cell numbers were determined by tetrazolium conversion to its formazan dye and absorbance was measured at 490 nm using an automated ELISA plate reader. Each experiment was performed in quadruplicate. IC50 values were determined using CalcuSyn software.

c-Src = c-Src (Homo sapiens, UniProt P12931); assay: Kinase profiling in vitro, c-Src; type: biochemical; conditions: recombinant c-Src, 33P-ATP, 120 min
Protocol: (§3) The kinase assays were performed with recombinant proteins. Briefly, proteins, freshly prepared substrates and ^33P-ATP (specific activity 0.01 μCi/μl final) were mixed in reaction buffer (20 mM HEPES pH 7.5, 10 mM MgCl2, 1 mM EGTA, 0.02% Brij35, 0.02 mg/ml BSA, 0.1 mM Na3VO4, 2 mM DTT) in the presence of DMSO as control or 5IN-1NH1s. The mixtures were reacted for 120 min at room temperature. Samples were transferred onto P81 ion exchange paper and filters were extensively washed with 0.75% phosphoric acid. The radioactivities were monitored. IC50 values were determined using GraphPad Prism software.

MV4-11 AML cells = assay: MTS cell viability, MV4-11 AML cells (FLT3-ITD); type: cell-based, human; conditions: 48 h, read-out: IC50 for 50% inhibition of viability
Protocol: as §1, §2

IGF1R = IGF1R (Homo sapiens, UniProt P08069); assay: Kinase profiling in vitro, IGF1R; type: biochemical; conditions: recombinant IGF1R, 33P-ATP, 120 min
Protocol: as §3

[1] = test system: SKOV3 ovarian cancer cells; assay: MTS cell viability, SKOV3 ovarian cancer cells; type: cell-based, human; conditions: 48 h, read-out: IC50 for 50% inhibition of viability
Protocol: as §1

GSK3β = GSK3β (Homo sapiens, UniProt P49841); assay: Kinase profiling in vitro, GSK3β; type: biochemical; conditions: recombinant GSK3β, 33P-ATP, 120 min
Chain of GSK3β (P49841 whole entry, species assumed): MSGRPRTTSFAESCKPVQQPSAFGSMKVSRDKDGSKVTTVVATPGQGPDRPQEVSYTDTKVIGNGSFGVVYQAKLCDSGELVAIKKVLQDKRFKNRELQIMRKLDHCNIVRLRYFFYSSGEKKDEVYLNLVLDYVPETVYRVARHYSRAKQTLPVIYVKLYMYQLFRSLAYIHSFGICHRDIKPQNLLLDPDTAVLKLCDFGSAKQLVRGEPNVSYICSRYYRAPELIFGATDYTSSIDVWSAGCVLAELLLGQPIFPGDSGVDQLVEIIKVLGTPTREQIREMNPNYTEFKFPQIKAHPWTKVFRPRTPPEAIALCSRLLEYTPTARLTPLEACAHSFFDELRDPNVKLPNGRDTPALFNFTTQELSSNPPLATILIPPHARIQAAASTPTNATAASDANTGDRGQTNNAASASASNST
Protocol: as §3

AKT1 = AKT1 (Homo sapiens, UniProt P31749); assay: Kinase profiling in vitro, AKT1; type: biochemical; conditions: recombinant AKT1, 33P-ATP, 120 min
Protocol: as §3

FLT3 (ITD) = FLT3 (ITD) (Homo sapiens, UniProt P36888); assay: In vitro kinase assay, recombinant FLT3 (ITD); type: biochemical; conditions: 33P-ATP, 120 min
Protocol: as §3, with “recombinant class III receptor tyrosine kinase family” for “recombinant”
as §3, with “Kinase” for “The kinase”, “FLT3, mutated FLT3-ITD and D835I mutant FLT3 kinases.” for “proteins.”, “compound (1289).” for “5IN-1NH1s.”

ABL1 (T315I) = ABL1 (T315I) (Homo sapiens, UniProt P00519, T315I); assay: Kinase profiling in vitro, ABL1 (T315I); type: biochemical; conditions: recombinant ABL1 (T315I), 33P-ATP, 120 min
Protocol: as §3

KDR/vEGFR2 = KDR/vEGFR2 (Homo sapiens, UniProt P35968); assay: Kinase profiling in vitro, KDR/vEGFR2; type: biochemical; conditions: recombinant KDR/vEGFR2, 33P-ATP, 120 min
Protocol: as §3

FLT3 [2] = assay: In vitro kinase assay, recombinant FLT3; type: biochemical; conditions: recombinant class III receptor tyrosine kinase family proteins
Protocol: as §3, with “recombinant class III receptor tyrosine kinase family” for “recombinant”
as §3, with “Kinase” for “The kinase”, “FLT3, mutated FLT3-ITD and D835I mutant FLT3 kinases.” for “proteins.”, “compound (1289).” for “5IN-1NH1s.”

FLT3 [3] = target: FLT3 (Homo sapiens, UniProt P36888); assay: In vitro kinase assay, recombinant FLT3; type: biochemical; conditions: recombinant FLT3, 33P-ATP, 120 min
Protocol: as §3, with “recombinant class III receptor tyrosine kinase family” for “recombinant”
as §3, with “Kinase” for “The kinase”, “FLT3, mutated FLT3-ITD and D835I mutant FLT3 kinases.” for “proteins.”, “compound (1289).” for “5IN-1NH1s.”

[4] = test system: T315I ABL1 mutant KCL22 CML cells; assay: MTS cell viability, T315I ABL1 mutant KCL22 CML cells; type: cell-based, human; conditions: T315I ABL1 mutant KCL22 CML cells, MTS, 48 h; read-out: IC50 for 50% inhibition of viability
Protocol: as §1
Human DU145 prostate cancer, A2058 melanoma, SKOV3 ovarian cancer and T315I ABL1 mutant KCL22 CML cells were seeded in 96-well plates (2500 cells/well for solid tumors, 5000 cells/well for blood tumors), incubated overnight at 37° C. in 5% CO2, and exposed to 5IN-6NC1, 5IN-1NH1, 5IN-6NNC6, or 5IN-6NNC7 in a dose-dependent manner for 48 h. Dimethyl sulfoxide (DMSO) was used as the vehicle control. Viable cell numbers were determined by tetrazolium conversion to its formazan dye and absorbance was measured at 490 nm using an automated ELISA plate reader. Each experiment was performed in quadruplicate. IC50 values were determined using CalcuSyn software.

BRAF = BRAF (Homo sapiens, UniProt P15056); assay: Kinase profiling in vitro, BRAF; type: biochemical; conditions: recombinant BRAF, 33P-ATP, 120 min
Protocol: as §3

[5] = test system: MDA-MB-231 breast cancer cells; assay: MTS cell viability, MDA-MB-231 breast cancer cells; type: cell-based, human; conditions: 48 h, read-out: IC50 for 50% inhibition of viability
Protocol: as §1

FLT3 (D835Y) = FLT3 (D835Y) (Homo sapiens, UniProt P36888, D835Y); assay: In vitro kinase assay, recombinant FLT3 (D835Y); type: biochemical; conditions: 33P-ATP, 120 min
Protocol: as §3, with “recombinant class III receptor tyrosine kinase family” for “recombinant”
as §3, with “Kinase” for “The kinase”, “FLT3, mutated FLT3-ITD and D835I mutant FLT3 kinases.” for “proteins.”, “compound (1289).” for “5IN-1NH1s.”

KCL22 CML cells = assay: MTS cell viability, KCL22 CML cells; type: cell-based, human; conditions: 48 h, read-out: IC50 for 50% inhibition of viability
Protocol: as §1

ABL1 = ABL1 (Homo sapiens, UniProt P00519); assay: Kinase profiling in vitro, ABL1; type: biochemical; conditions: recombinant ABL1, 33P-ATP, 120 min
Protocol: as §3

[6] = test system: DU145 prostate cancer cells; assay: MTS cell viability, DU145 prostate cancer cells; type: cell-based, human; conditions: 48 h, read-out: IC50 for 50% inhibition of viability
Protocol: as §1

c-KIT = c-KIT (Homo sapiens, UniProt P10721); assay: In vitro kinase assay, recombinant c-KIT; type: biochemical; conditions: 33P-ATP, 120 min
Chain of c-KIT (P10721 26-976): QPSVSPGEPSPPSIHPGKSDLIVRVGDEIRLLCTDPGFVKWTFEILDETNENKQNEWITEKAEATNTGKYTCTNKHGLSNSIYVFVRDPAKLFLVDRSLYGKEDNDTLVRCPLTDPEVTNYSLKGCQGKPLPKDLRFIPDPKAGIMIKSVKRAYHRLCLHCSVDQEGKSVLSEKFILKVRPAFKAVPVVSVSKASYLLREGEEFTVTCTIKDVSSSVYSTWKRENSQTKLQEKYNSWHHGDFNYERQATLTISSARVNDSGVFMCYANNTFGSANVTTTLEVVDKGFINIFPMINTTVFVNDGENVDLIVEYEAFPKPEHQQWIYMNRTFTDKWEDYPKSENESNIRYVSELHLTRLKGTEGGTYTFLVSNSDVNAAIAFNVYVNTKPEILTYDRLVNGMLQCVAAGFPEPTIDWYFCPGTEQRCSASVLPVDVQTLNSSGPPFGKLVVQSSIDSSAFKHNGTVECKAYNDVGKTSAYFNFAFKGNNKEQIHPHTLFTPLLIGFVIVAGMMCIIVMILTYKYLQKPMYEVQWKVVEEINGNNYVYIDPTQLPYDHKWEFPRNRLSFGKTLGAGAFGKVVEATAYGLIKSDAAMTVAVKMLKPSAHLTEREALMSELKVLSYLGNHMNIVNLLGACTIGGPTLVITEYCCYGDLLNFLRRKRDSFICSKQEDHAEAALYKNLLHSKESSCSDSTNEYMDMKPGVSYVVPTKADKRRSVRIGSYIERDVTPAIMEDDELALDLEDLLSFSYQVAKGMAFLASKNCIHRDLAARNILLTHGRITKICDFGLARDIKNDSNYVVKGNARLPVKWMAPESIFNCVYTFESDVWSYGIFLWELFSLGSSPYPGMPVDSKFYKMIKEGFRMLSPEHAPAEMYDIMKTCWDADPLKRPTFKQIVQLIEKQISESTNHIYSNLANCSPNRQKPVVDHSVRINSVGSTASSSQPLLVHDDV
Protocol: (§4) Compound (1289) inhibits activities of FMS, PDGFR α, PDGFR β and c-KIT in vitro. The kinase assays were performed with recombinant FMS, PDGFR α, PDGFR β and c-KIT proteins. Briefly, proteins, freshly prepared substrates and ^33P-ATP (specific activity 0.01 μCi/μl final) were mixed in reaction buffer (20 mM HEPES pH 7.5, 10 mM MgCl2, 1 mM EGTA, 0.02% Brij35, 0.02 mg/ml BSA, 0.1 mM Na3VO4, 2 mM DTT) in the presence of DMSO as control or compound (1289). The mixtures were reacted for 120 min at room temperature. Samples were transferred onto P81 ion exchange paper and filters were extensively washed with 0.75% phosphoric acid. The radioactivities were monitored.
as §3, with “recombinant class III receptor tyrosine kinase family” for “recombinant”

Aurora A = Aurora A (Homo sapiens, UniProt O14965); assay: Kinase profiling in vitro, Aurora A; type: biochemical; conditions: recombinant Aurora A, 33P-ATP, 120 min
Chain of Aurora A (O14965 whole entry): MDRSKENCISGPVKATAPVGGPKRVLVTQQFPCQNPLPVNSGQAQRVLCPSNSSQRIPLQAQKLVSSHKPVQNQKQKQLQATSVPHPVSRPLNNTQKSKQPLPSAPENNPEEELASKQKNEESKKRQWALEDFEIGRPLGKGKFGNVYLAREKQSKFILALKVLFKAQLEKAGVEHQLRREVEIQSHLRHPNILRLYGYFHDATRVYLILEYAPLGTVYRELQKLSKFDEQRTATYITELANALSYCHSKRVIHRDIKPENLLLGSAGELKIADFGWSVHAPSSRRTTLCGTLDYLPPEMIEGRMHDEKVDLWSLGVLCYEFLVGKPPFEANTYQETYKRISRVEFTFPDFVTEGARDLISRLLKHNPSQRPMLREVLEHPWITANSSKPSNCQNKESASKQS
Protocol: as §3

PDGFR α = PDGFR α (Homo sapiens, UniProt P16234); assay: In vitro kinase assay, recombinant PDGFR α; type: biochemical; conditions: 33P-ATP, 120 min
Chain of PDGFR α (P16234 24-1089, species assumed): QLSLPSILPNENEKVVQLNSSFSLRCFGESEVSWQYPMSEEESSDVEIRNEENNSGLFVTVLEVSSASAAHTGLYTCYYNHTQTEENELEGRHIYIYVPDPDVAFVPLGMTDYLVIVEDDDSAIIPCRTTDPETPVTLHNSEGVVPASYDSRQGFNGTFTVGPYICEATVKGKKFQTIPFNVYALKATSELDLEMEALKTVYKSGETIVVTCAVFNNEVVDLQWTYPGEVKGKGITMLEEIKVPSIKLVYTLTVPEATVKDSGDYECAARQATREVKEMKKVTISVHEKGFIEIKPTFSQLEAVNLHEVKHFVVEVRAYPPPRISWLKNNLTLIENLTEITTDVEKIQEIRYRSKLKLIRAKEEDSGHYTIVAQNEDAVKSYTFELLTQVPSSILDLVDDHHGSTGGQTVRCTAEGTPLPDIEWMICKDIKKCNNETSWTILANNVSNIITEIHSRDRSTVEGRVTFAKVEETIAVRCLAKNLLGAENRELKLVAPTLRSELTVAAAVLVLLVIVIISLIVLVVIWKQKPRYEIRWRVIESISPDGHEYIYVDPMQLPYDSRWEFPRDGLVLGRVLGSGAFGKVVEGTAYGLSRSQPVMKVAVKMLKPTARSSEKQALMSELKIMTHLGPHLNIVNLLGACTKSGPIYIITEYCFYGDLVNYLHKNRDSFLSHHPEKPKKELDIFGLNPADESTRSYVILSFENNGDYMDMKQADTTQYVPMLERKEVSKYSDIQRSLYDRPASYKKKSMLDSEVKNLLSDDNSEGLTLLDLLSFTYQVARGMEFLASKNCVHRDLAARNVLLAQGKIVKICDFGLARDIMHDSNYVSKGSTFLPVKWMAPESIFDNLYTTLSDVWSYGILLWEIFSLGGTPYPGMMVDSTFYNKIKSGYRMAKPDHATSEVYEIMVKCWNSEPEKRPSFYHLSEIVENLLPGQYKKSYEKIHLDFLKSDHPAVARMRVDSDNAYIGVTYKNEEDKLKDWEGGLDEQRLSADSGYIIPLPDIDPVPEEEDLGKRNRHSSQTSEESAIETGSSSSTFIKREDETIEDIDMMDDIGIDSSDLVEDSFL
Protocol: as §4
as §3, with “recombinant class III receptor tyrosine kinase family” for “recombinant”

A549 lung cancer cells = assay: MTS cell viability, A549 lung cancer cells; type: cell-based, human; conditions: 48 h, read-out: IC50 for 50% inhibition of viability
Protocol: as §1

FMS = FMS (Homo sapiens, UniProt P07333); assay: In vitro kinase assay, recombinant FMS; type: biochemical; conditions: 33P-ATP, 120 min
Chain of FMS (P07333 20-972, species assumed): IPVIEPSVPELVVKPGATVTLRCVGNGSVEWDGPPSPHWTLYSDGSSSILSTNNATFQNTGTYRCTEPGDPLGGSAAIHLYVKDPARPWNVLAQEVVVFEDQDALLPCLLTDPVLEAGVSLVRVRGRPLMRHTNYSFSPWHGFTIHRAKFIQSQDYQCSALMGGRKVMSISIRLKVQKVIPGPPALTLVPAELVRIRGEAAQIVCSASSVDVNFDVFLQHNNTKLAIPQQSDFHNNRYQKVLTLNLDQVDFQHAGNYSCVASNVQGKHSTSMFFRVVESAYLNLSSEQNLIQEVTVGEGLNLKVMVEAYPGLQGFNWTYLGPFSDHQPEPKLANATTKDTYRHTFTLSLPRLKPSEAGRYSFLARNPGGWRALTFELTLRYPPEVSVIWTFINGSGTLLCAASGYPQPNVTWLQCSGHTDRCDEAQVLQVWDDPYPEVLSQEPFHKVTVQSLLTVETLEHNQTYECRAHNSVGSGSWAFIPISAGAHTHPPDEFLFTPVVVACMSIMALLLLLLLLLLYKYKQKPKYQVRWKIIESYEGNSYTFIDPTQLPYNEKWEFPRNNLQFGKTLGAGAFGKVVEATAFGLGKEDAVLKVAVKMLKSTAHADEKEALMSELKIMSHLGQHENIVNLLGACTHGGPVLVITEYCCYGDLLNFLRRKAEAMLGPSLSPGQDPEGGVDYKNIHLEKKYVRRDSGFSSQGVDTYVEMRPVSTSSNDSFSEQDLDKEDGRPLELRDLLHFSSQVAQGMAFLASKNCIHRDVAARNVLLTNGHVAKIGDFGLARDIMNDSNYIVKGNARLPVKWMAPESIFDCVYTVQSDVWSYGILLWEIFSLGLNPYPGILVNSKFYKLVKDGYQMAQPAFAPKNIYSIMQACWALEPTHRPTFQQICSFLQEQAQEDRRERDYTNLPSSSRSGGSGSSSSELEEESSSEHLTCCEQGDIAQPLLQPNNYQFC
Protocol: as §4
as §3, with “recombinant class III receptor tyrosine kinase family” for “recombinant”

A2058 melanoma cells = assay: MTS cell viability, A2058 melanoma cells; type: cell-based, human; conditions: 48 h, read-out: IC50 for 50% inhibition of viability
Protocol: as §1

JAK2 = JAK2 (Homo sapiens, UniProt O60674); assay: Kinase profiling in vitro, JAK2; type: biochemical; conditions: recombinant JAK2, 33P-ATP, 120 min
Protocol: as §3

PDGFR β = PDGFR β (Homo sapiens, UniProt P09619); assay: In vitro kinase assay, recombinant PDGFR β; type: biochemical; conditions: 33P-ATP, 120 min
Chain of PDGFR β (P09619 33-1106, species assumed): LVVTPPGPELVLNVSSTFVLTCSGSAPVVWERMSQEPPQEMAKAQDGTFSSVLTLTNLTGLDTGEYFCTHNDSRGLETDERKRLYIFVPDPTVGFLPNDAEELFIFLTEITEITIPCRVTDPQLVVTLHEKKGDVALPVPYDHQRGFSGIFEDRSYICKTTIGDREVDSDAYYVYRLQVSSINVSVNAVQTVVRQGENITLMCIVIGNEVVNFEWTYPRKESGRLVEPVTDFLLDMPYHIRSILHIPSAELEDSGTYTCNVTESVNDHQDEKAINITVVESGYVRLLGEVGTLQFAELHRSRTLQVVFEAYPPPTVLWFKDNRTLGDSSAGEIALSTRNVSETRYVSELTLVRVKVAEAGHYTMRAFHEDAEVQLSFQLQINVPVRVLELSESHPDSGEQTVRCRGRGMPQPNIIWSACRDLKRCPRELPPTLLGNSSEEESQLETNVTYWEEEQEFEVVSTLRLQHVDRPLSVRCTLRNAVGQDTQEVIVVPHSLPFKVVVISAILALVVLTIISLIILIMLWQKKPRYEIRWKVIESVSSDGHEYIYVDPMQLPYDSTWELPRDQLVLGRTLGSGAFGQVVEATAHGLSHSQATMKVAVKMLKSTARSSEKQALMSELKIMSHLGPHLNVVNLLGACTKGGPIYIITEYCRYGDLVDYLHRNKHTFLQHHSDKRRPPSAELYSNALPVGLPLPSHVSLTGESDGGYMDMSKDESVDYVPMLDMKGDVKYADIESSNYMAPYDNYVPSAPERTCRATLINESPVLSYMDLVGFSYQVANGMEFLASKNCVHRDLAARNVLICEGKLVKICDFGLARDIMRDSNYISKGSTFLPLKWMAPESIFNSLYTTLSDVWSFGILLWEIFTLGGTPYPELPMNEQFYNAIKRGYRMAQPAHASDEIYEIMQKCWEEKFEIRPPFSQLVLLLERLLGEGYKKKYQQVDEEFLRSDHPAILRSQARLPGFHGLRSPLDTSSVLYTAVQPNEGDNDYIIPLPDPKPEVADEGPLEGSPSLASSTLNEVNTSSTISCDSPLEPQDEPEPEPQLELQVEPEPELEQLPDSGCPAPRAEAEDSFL
Protocol: as §4
as §3, with “recombinant class III receptor tyrosine kinase family” for “recombinant”

CDK2/cyclin A = CDK2/cyclin A (Homo sapiens, UniProt P24941); assay: Kinase profiling in vitro, CDK2/cyclin A; type: biochemical; conditions: recombinant CDK2/cyclin A, 33P-ATP, 120 min
Protocol: as §3

Erk1/2 = assay: Western blot, phosphorylation of Erk1/2 in AML cells; type: cell-based, human; conditions: FLT-ITD mutated AML cells (MV4-11, MOLM13), 4h
Protocol: (§5) Western blot analyses were performed with specific antibodies. Briefly, human MV4-11 and MOLM13 AML cells were treated with compound (1289) in a dose-dependent manner for 4h. Whole-cell lysates (40 ug) were resolved by SDS-PAGE. Primary phospho-specific antibodies to p-Stat5 and […] were diluted in TBS (pH 7.5) with 5% (w/v) BSA and 0.1% (v/v) Tween-20 over night at 4° C. Primary specific antibodies to Stat5 and […] were diluted in PBS (pH 7.5) with 5% (w/v) nonfat milk and 0.1% (v/v) Tween-20 overnight at 4° C. Horseradish peroxidase-conjugated secondary antibodies were incubated in PBS (pH 7.5) with 5% (w/v) nonfat milk and 0.1% (v/v) Tween-20 for 1 h at room temperature. Positive immuno-reactive proteins were detected using the ECL system.

MV4-11 AML SQ xenografts = MV4-11 AML SQ xenografts in vivo; set-up: species or system mouse; conditions: NSG mice, 25 mg/kg orally twice daily for 18 days
Protocol: Human MV4-11 AML cells (5×10^6) were resuspended in serum-free RPMI1640 medium and subcutaneously injected into the flank of 5-6 weeks old NOD/SCID/IL-2rg(ko) (NSG) female mouse. When palpable tumor sizes reached at approximately 100 mm^3, mice were randomly divided into two groups (vehicle=7, treatment=7). Then, compound (1289) was orally administered at 25 mg/kg with vehicle (10% DMSO+30% SOLUTOL®+60% Saline), twice daily for 18 days. Tumor volumes were calculated by the formula 1/2a×b^2, where a is the long diameter, and b is the short diameter. Tumor volumes correlate with tumor weights. The statistical significance of group differences was analyzed using a Student's t-test with the two-tailed distribution. P values less than 0.05 were considered statistically significant.

STAT5 = assay: Western blot, phosphorylation of STAT5 in AML cells; type: cell-based, human; conditions: FLT-ITD mutated AML cells (MV4-11, MOLM13), 4h
Protocol: as §5

## CNCCO/N=C1/C(=C2/C(=O)Nc3ccc(Br)cc32)Nc2ccccc21 [5IN-1NH1s]
MOLM13 AML cells; 48 h
  IC50: 7.5 nM
c-Src
  IC50: 13.8 nM
MV4-11 AML cells
  IC50: 3.7 nM
IGF1R
  IC50: 31.8 nM
[1]
  IC50: 169 nM
GSK3β
  IC50: 1.18 nM
AKT1
  IC50: 327 nM
FLT3 (ITD)
  IC50: 1.09 nM
ABL1 (T315I)
  IC50: 3400 nM
KDR/vEGFR2
  IC50: 245 nM
FLT3 [2]
  selectivity for FLT3 and mutated FLT3 kinases within class III receptor tyrosine kinase family: selectively inhibits
FLT3 [3]
  IC50: 1.39 nM
[4]
  IC50: 52.7 nM
BRAF
  IC50: 7410 nM
[5]
  IC50: 33 nM
FLT3 (D835Y)
  IC50: < 0.5 nM
KCL22 CML cells
  IC50: 72.8 nM
ABL1
  IC50: 434 nM
[6]
  IC50: 44.7 nM
c-KIT
  IC50: 321 nM
Aurora A
  IC50: 217 nM
PDGFR α
  IC50: 72.2 nM
A549 lung cancer cells
  IC50: 46.1 nM
FMS
  IC50: 16 nM
A2058 melanoma cells
  IC50: 88.9 nM
JAK2
  IC50: 169 nM
PDGFR β
  IC50: 9.1 nM
CDK2/cyclin A
  IC50: 1.08 nM

## O=C1Nc2ccc(Br)cc2C1=C1Nc2ccccc2C1=NOCCN1CCNCC1 [Compound (1289)]
MOLM13 AML cells; Homo sapiens, MOLM-13, 48 h
  IC50: 2.3 nM
MV4-11 AML cells; Homo sapiens
  IC50: 1.8 nM
Erk1/2
  phosphorylation of Erk1/2: blocked phosphorylation
FLT3 (ITD)
  IC50: 0.56 nM
FLT3 [3]
  IC50: 0.68 nM
FLT3 (D835Y)
  IC50: < 0.5 nM
c-KIT
  IC50: 47.7 nM
MV4-11 AML SQ xenografts
  efficacy in vivo on MV4-11 AML SQ xenografts: shows efficacy in vivo
PDGFR α
  IC50: 13.6 nM
STAT5
  phosphorylation of STAT5: blocked phosphorylation
FMS
  IC50: 7.6 nM
PDGFR β
  IC50: 1.2 nM
